Measurements reported in patent publication US6344191B2, “Chemical attractants for moths” (The United States of America as represented by the …, priority 1998, dated 2002).

Experiments:
Assay in all cases: Field trapping test, baited Trappit dome traps in apple and pear orchards
Assay type in all cases: in vivo
Conditions in all cases: for Numbers captured in traps: Experiment 4, 0.25% acetic acid in drowning solution and/or 1 ml alcohol in cap, unbaited control
Lacanobia subjuncta = test system: Lacanobia subjuncta
Procedure: (§1) Materials and Methods. The Trappit™ dome trap (Agrisense, Fresno, Calif.) was used in all tests. Two hundred ml of a drowning solution was used in the reservoir of all traps. This solution was 200 ml water, 25 μl of detergent, 50 μl yellow, 25 μl blue, and 60 μl red food dyes (McCormick, Hunt Valley, N.J.), and 20 mg clay. Acetic acid, when tested, was added to the drowning solution as a percent of the solution. Alcohols tested were loaded in polyethylene caps (No. 60975D-3, Kimball Glass, Vineland, N.J.) that were impaled on a push pin glued to the inside of the top of the trap. Traps were serviced two or three times per week depending on weather conditions, and the drowning solution with or without acetic acid was replaced weekly. Alcohols in polyethylene caps were replaced monthly.
(§2) All experiments were conducted in commercial apple and pear orchards. Traps were hung from tree branches at 1.5 to 2 m above ground, with 10 m between traps within a block and 10 m between adjacent blocks.
(§3) Experiment Overview. Four trapping experiments were conducted in apple and pear orchards in the Yakima Valley during the summer of 1998. An initial experiment compared captures of pest moths in traps baited with the combination of acetic acid and 3-methyl-1-butanol to acetic acid alone and to fermented molasses solution. The second experiment was a comparison of the attractiveness of the combination of acetic acid and 3-methyl-1-butanol with varying percentages of acetic acid in the drowning solution. The third experiment was a comparison of the attractiveness of the combination of acetic acid and 3-methyl-1-butanol with varying doses of the 3-methyl-1-butanol in the cap. The fourth experiment was a test of possible synergism or enhancement of acetic acid with 3-methyl-1-butanol and acetic acid with 3-methyl-1-pentanol and a comparison of the two alcohols.
(§4) Trap catch data for each species was subjected to an ANOVA and means were separated by Duncan's New Multiple Range Test for the first and fourth experiments. Linear regression was used to analyze trap data from the second and third experiments to determine if their was a significant relationship between concentration (acetic acid) or dose (3-methyl-1-butanol) and captures of moths in traps.
(§5) Experiment 1. Traps were baited (1) with 0.25% acetic acid in the drowning solution, (2) with 0.5% acetic acid in the drowning solution and one ml of 3-methyl-1-butanol in a polyethylene cap, or (3) with 200 ml of a 10% solution of molasses in water. A randomized complete block design was used, with 4 blocks set up in early May. Traps were maintained through May and June and again in August.
(§6) Experiment 2. Traps were all baited with one ml of 3-methyl-1-butanol in a polyethylene cap and with either no acetic acid in the drowning solution or with 0.008, 0.03, 0.125, 0.5, or 2% glacial acetic acid by volume in the 200 ml of drowning solution. A randomized complete block design was used, with 4 blocks set up in late July, with each of the 6 treatments represented within each block. This experiment was maintained through August and early September.
(§7) Experiment 3. Traps were all baited with 0.25% acetic acid in the drowning solution and either 0, 12.5, 25, 50, or 100% 3-methyl-1-butanol in one ml of a mixture of 3-methyl-1-butanol and mineral oil. A randomized complete block design was used with each of the 5 treatments represented within each block. This experiment was set up in late July and was maintained through early September.
(§8) Experiment 4. Traps were either unbaited (control) or were baited with 0.25% acetic acid in the drowning solution (acetic acid), with 0.25% acetic acid in the drowning solution and one ml of 3-methyl-1-butanol in a polyethylene cap, with 0.25% acetic acid in the drowning solution and one ml of 3-methyl-1-pentanol in a polyethylene cap, with one ml of 3-methyl-1-butanol in a cap, or with one ml of 3-methyl-1-pentanol in a cap.

[1] = test system: bertha armyworm (Mamestra configurata)
Procedure: as §1, §2, §3, §4, §5, §6, §7, §8

[2] = test system: spotted cutworm (Xestia c-nigrum)
Procedure: as §1, §2, §3, §4, §5
Experiment 4. […]

[3] = Experiment 1, 0.25% acetic acid in drowning solution, 200 ml 10% molasses solution
[4] = Experiment 2, 1 ml 3-methyl-1-butanol in cap, no acetic acid

SMILES	Catches of male or female moths, acetic acid versus molasses (Lacanobia subjuncta; [3])	Numbers captured in traps (Lacanobia subjuncta)	Catches of male or female moths, acetic acid versus molasses [1, 3]	Numbers captured in traps [1]	Catches of female moths, acetic acid versus molasses ([2]; Experiment 1, females, 0.25% acetic acid, 10% molasses solution)	Numbers captured in traps [2]	Numbers of moths captured in traps (Lacanobia subjuncta; [4])	Numbers of moths captured in traps [1, 4]
CC(=O)O [acetic acid, reference compound]	no difference	significantly higher than the unbaited traps	no difference	significantly higher than the unbaited traps	no difference	significantly higher than the unbaited traps	–	–
CC(C)CCO [3-methyl-1-butanol]	–	significantly higher than the unbaited traps	–	significantly higher than the unbaited traps	–	significantly higher than the unbaited traps	nearly no moths	Nearly no
CCC(C)CCO (centres unmarked) [3-methyl-1-pentanol]	–	significantly higher than the unbaited traps	–	significantly higher than the unbaited traps	–	significantly higher than the unbaited traps	–	–
